The test system of series [1] is Lamina Propria Immune Cells. Description: Steroidal treatment of lamina propria immune cells on Intestine-Chip. The series is classed as cell-based, human. The following applies: 10 μM (10X clinically relevant dosage); before and after challenge with PAM2CSK4; ulcerative colitis patients.
The subject of the next series is Caco-2 Intestine-Chip. Kind of series: Bacterial colonization, attachment and titration on Intestine-Chip. The series is classed as cell-based, human. The following applies: SEM images of the Intestine-Chip. An excerpt:
Top Channel: Caco-2. Day 1: Connect to flow. Day 3: Inoculation and Readouts: Imaging; Permeability; Bacterium Titer; etc. Day 8: Inflammatory Challenge. Readouts: Imaging; Permeability; Cytokines; Bacterium Titer; etc. Day 8 +4 hrs: Readouts: Imaging; Permeability; Cytokines; Bacterium Titer; etc. Day 8 +14 hrs: Readouts: Permeability; Cytokines; Effluent Titer; etc. Day 8 +14 hrs: Collect Endpoints: RNA; Immunofluorescence; Adherent Titer; etc.
Barrier function is an indicator of epithelial cell health in the intestine. […] Each bacteria strain was added (inoculated) on chip at a concentration of 1×10^6 mL^−1.
FIG. 44A Bacterial Titration (counts mL^−1) at Day 3 and Day 4 compared to adherent counts at Day 4.
Bacterial Titration. Viable, aerotolerant bifidobacterial strains colonized the Caco-2 Intestine-Chip and could be detected in plate Titers.

The next series has as its system Airway On-Chip cells. Description: TUNEL apoptosis staining on Airway On-Chip. The series is classed as cell-based. Conditions: 3 μM for 3 h at 37° C., positive control. The protocol: One embodiment of an Airway On-Chip is infected as described above for 2 hours and then treated 50 μg/ml tetracycline for 24 h (top and bottom channels under flow) for 24 h in order to limit bacterial replication (to avoid over-replication and cell lifting). Using this methodology, we performed longer infections on an airway chip and avoided cell death at 24 h. At 24 h, chips are fixed with 4% paraformaldehyde for 15 minutes and subsequently permeabilized with 0.25% triton in PBS. Apoptosis staining is performed following the Click-iT™ Plus TUNEL Assay for In Situ Apoptosis Detection, Alexa Fluor 647 assay: Click-iT™ Plus TUNEL Assay, Thermo Fisher Scientific Inc., 6 November 2017.
The TUNEL assay is based on the incorporation of modified dUTPs by the enzyme terminal deoxynucleotidyl transferase (TdT) at the 3′-OH ends of fragmented DNA, a hallmark as well as the ultimate determinate of apoptosis. Click-iT™ Plus TUNEL assay with the Alexa Fluor™ 647 dye is utilized to detect the fragment DNA (purple), nuclei are labelled with DAPI.
Staurosporin, a prototypical ATP-competitive kinase inhibitor, is used as a positive control in this assay. […] As an additional positive control, chips are treated with 1 unit of DNAse I for 30 minutes at room temperature to induce TUNEL positive DNA strand breaks.

The next series concerns Airway cells. Kind of series: Permeability of airway cells to Imipenem on Airway chip. The series is classed as cell-based. The following applies: at lower concentrations. The protocol: More specifically, in one embodiment of an Airway on-chip, duplicate chips are infected with PA 5919 WT or PA 5890 Mutant as described herein. Then, Imipenem is added to apical and basolateral fluids (cell media) for treatment with Imipenem at 50, 100 and 500 μg/ml for 24 hours with at least one chip without Imipenem. At 24 h post treatment, wash cells 3× to remove the test drug, i.e. antibiotic Imipenem. Cells lysed with 1% Triton for 10 minutes on chip, then the lyste is collected from the chip's channels. Lysates are serially diluted for CFU quantification. N=2
Assay readouts: Viability of extracellular bacteria (apical sampling). Viability of intracellular bacteria (cell lysis and sampling). Two-way ANOVA with Dunnett's post-test **<0.05, **<0.001 (compared to untreated).

Turning to `C[C@]12C=CC(=O)C=C1CC[C@@H]1[C@@H]2C(=O)C[C@@]2(C)[C@H]1CC[C@]2(O)C(=O)CO` [Prednisone], in series [1], the inflammatory responses entry was “suppresses inflammatory responses”. As for Lactobacillus rhamnosus strain GG [LGG], the “attachment and biofilm formation” value with Caco-2 Intestine-Chip was “evidence of LGG attachment and biofilm formation”.

With `CN[C@@H]1C[C@H]2O[C@@](C)([C@@H]1OC)n1c3ccccc3c3c4c(c5c6ccccc6n2c5c31)C(=O)NC4` [staurosporin, Staurosporin], the “apoptotic cell numbers (TUNEL)” value in the series with Airway On-Chip cells is “increased apoptotic cell numbers”. For the compound `C[C@@H](O)[C@H]1C(=O)N2C(C(=O)O)=C(SCCN=CN)C[C@H]12` [Imipenem], in the series on Airway cells, the “permeability of airway cells to the drug” value is on record as “impermeable”.

Source of the values: US20210115406A1, “HOST-BIOME INTERACTIONS” (EMULATE, INC., priority 2018, published 2021).
